The results in this text go back to US9428496B2, “Thiazolamine derivative and use thereof as anti-picornaviral infection medicament” (Institute of Pharmacology and Toxicology Academy of …, priority 2010, dated 2016).

In general, IC50 refers to the concentration at which inhibition is half-maximal. The term melting point denotes the temperature, or range, at which the solid turns liquid.

The test system of one series is enterovirus Cox A16. Briefly: microbe, parasite or virus in culture. It counts as cell-based. The procedure:
(§1) Anti-picornaviral activity of the compounds of the present invention in in vitro model Test item: activity screening of compounds against enteroviruses EV71 and Cox A16 Test principle: using Vero cells as virus host, the cytopathic effect of Vero cells induced by the inhibition of compounds against enteroviruses EV71 and Cox A16 was measured.
(§2) 1. Virus strains: enteroviruses EV71 (Shenzhen 98) and Cox A16, passaging in the laboratory.
(§3) Test Method: Vero cells were incubated in a 96-well culture plate. After 24 hours, they were infected with EV71 and Cox A16 by adsorption for 2 hours. After discarding the virus solution, maintenance solutions containing different concentrations of samples and positive controls were added, and, at the same time, cell control wells and virus control wells were set. […] The half inhibitory concentrations (IC50) of the samples against EV71 and Cox A16 were respectively calculated according to the Reed-Muench method.

The subject of series [1] is enterovirus EV71 (Shenzhen 98). Briefly: Inhibition of cytopathic effect (CPE) induced by EV71 in Vero cells. It counts as cell-based. As to the method: as §1, §2, §3
On the technique in general: Damage to the host cells serves as the signal in cytopathic effect assays.

In another series the test system is Vero cells. Briefly: Toxicity of compounds to the Vero host cells (TC50, TC0). It counts as cell-based. Particulars: Vero cells.

With `CC(C)c1ccc(OCCCCCCN2CCN(c3nccs3)CC2)cc1.Cl` [Example 23, 2-{4-[6-(4-isopropylphenoxy)hexyl]piperazin-1-yl}thiazole hydrochloride], the melting point was in the range of 135 to 137 °C. Further, the IC50 in the series with enterovirus Cox A16 (Enterovirus, CPE in Vero cells, Reed-Muench method, read-out: CoxA16 IC50) amounted to 0.57 µg/mL. The “CoxA16 SI” value with enterovirus Cox A16 (SI, CoxA16, Vero cells) is on record as 34.8. The same molecule had an IC50 in series [1] (CPE in Vero cells, Reed-Muench method) of 1.97 µg/mL. Besides, in series [1] (SI, EV71, Vero cells), the “EV71 SI” value was 10.1. For the same molecule, in the series with Vero cells, the TC0 was determined as 3.13 µg/mL and the TC50 is 19.84 µg/mL.
